The subject of the assay is B6C3F1 mice, ip Sarcoma M5076, median survival T/C. In words: NCI In Vivo Anticancer Drug Screen. Data for tumor model Sarcoma M5076 (intraperitoneal) in B6C3F1 mice. The conditions noted are these: endpoint: median survival time, higher = longer survival. Put shortly:
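Transplantable tumour in mice; compound-treated vs vehicle-treated groups. Read-out: survival. Value = treated/control ratio.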

Where [1] appears, read: dose: 25.0 mg/kg/injection, schedule: Q04DX004 (ip), vehicle: saline with Tween-80.
[2] abbreviates: dose: 50.0 mg/kg/injection, schedule: Q04DX004 (ip), vehicle: saline with Tween-80.
The mark [3] stands for this setting: dose: 100.0 mg/kg/injection, schedule: Q04DX004 (ip), vehicle: saline with Tween-80.
[4] abbreviates: dose: 200.0 mg/kg/injection, schedule: Q04DX004 (ip), vehicle: saline with Tween-80.
Setting [5] is: dose: 400.0 mg/kg/injection, schedule: Q04DX004 (ip), vehicle: saline with Tween-80.

Several values for one entry are separate records, joined by “and”; a condition that tells them apart may be missing. Identical values can stand only once. Toxic doses and inconclusive results are not listed.

Consider `COc1cc2cc3c(c(O)c2c(O)c1/C=C/C(C)C)C(=O)CC(C)(OC(C)=O)C3` (stereo not given), for which the T/C was 117 % of control (dose: 0.62 mg/kg/injection, schedule: Q01DX009 (ip), vehicle: Klucel (hydroxypropylcellulose) (HPC)); 98 % of control and 104 % of control and 106 % of control (dose: 0.63 mg/kg/injection, schedule: Q01DX009 (ip), vehicle: Klucel (hydroxypropylcellulose) (HPC)); 113 % of control (dose: 0.63 mg/kg/injection, schedule: Q04DX004 (ip), vehicle: Klucel (hydroxypropylcellulose) (HPC)); 121 % of control (dose: 1.25 mg/kg/injection, schedule: Q04DX004 (ip), vehicle: Klucel (hydroxypropylcellulose) (HPC)); 123 % of control (dose: 2.5 mg/kg/injection, schedule: Q04DX004 (ip), vehicle: Klucel (hydroxypropylcellulose) (HPC)); 106 % of control (dose: 3.6 mg/kg/injection, schedule: Q04DX004 (ip), vehicle: Klucel (hydroxypropylcellulose) (HPC)). Besides, the T/C is 110 % of control (dose: 6.0 mg/kg/injection, schedule: Q04DX004 (ip), vehicle: Klucel (hydroxypropylcellulose) (HPC)); 118 % of control (dose: 10.0 mg/kg/injection, schedule: Q04DX004 (ip), vehicle: Klucel (hydroxypropylcellulose) (HPC)); 117 % of control (dose: 16.67 mg/kg/injection, schedule: Q04DX004 (ip), vehicle: Klucel (hydroxypropylcellulose) (HPC)).

Consider `O=C(N/N=C/c1ccco1)c1ccc(OCc2nc3ccccc3[nH]2)cc1`, for which the T/C under setting [1] is 97 % of control, the T/C under setting [2] was 95 % of control, the T/C under setting [3] was 96 % of control and the T/C under setting [4] was 90 % of control.

For the compound `COC12[C@@H]3N[C@@H]3CN1C1=C(C(=O)C(NCCSSCCNC3=C(C)C(=O)C4=C(C3=O)C(COC(N)=O)[C@]3(OC)C5N[C@@H]5CN43)=C(C)C1=O)[C@@H]2COC(N)=O` (stereo not given in full), the T/C is 161 % of control (dose: 3.0 mg/kg/injection, schedule: Q04DX004 (ip), vehicle: other); 216 % of control (dose: 6.0 mg/kg/injection, schedule: Q04DX004 (ip), vehicle: other); 91 % of control (dose: 12.0 mg/kg/injection, schedule: Q04DX004 (ip), vehicle: other); 253 % of control (dose: 12.5 mg/kg/injection, schedule: Q04DX004 (ip), vehicle: other).

Consider `Nc1ccc2c(c1)C1(CCC2)NC(=O)NC1=O` (stereo not given), for which the T/C under setting [2] was 97 % of control, the T/C under setting [3] was 96 % of control, the T/C under setting [4] is 98 % of control and the T/C under setting [5] was 98 % of control.

For the compound `CCOC(=O)CNCc1cc(=O)[nH]c2cc(Cl)ccc12`, the T/C was 99 % of control under setting [1]; 99 % of control under setting [2]; 101 % of control under setting [3]; 99 % of control under setting [4]; 94 % of control under setting [5].

Regarding `COC(=O)c1ccc(N=NN(C)COC(C)=O)cc1`, the T/C is 123 % of control (dose: 30.0 mg/kg/injection, schedule: Q04DX004 (ip), vehicle: Klucel (hydroxypropylcellulose) (HPC)); 123 % of control (dose: 60.0 mg/kg/injection, schedule: Q04DX004 (ip), vehicle: Klucel (hydroxypropylcellulose) (HPC)); 175 % of control (dose: 103.7 mg/kg/injection, schedule: Q04DX004 (ip), vehicle: Klucel (hydroxypropylcellulose) (HPC)); 188 % of control (dose: 172.8 mg/kg/injection, schedule: Q04DX004 (ip), vehicle: Klucel (hydroxypropylcellulose) (HPC)); 195 % of control (dose: 288.0 mg/kg/injection, schedule: Q04DX004 (ip), vehicle: Klucel (hydroxypropylcellulose) (HPC)); 167 % of control (dose: 480.0 mg/kg/injection, schedule: Q04DX004 (ip), vehicle: Klucel (hydroxypropylcellulose) (HPC)).

For `COc1cc2c(c(OC)c1O)-c1ccc(OC)c(=O)cc1[C@@H](NC(=O)C(F)(F)F)CC2`, the T/C was 110 % of control (dose: 0.9 mg/kg/injection, schedule: Q04DX004 (ip), vehicle: Klucel (hydroxypropylcellulose) (HPC)); 124 % of control (dose: 1.55 mg/kg/injection, schedule: Q04DX004 (ip), vehicle: Klucel (hydroxypropylcellulose) (HPC)); 122 % of control (dose: 2.59 mg/kg/injection, schedule: Q04DX004 (ip), vehicle: Klucel (hydroxypropylcellulose) (HPC)); 124 % of control (dose: 4.32 mg/kg/injection, schedule: Q04DX004 (ip), vehicle: Klucel (hydroxypropylcellulose) (HPC)); 124 % of control (dose: 7.2 mg/kg/injection, schedule: Q04DX004 (ip), vehicle: Klucel (hydroxypropylcellulose) (HPC)).

Take `CC1=C(/C=C/C(C)=C/C=C/C(C)=C/C=O)C(C)(C)CCC1`: the T/C by setting is: (dose: 75.0 mg/kg/injection, schedule: Q04DX004 (ip), vehicle: saline + alcohol) 104 % of control; (dose: 150.0 mg/kg/injection, schedule: Q04DX004 (ip), vehicle: saline + alcohol) 96 % of control.

For the compound `CN1C(=O)C(=O)N(Cc2ccc(CN3C(=O)C(=O)N(C)C3=O)cc2)C1=O`, the T/C runs as follows: (dose: 50.0 mg/kg/injection, schedule: Q04DX004 (ip), vehicle: Klucel (hydroxypropylcellulose) (HPC)) 98 % of control; (dose: 100.0 mg/kg/injection, schedule: Q04DX004 (ip), vehicle: Klucel (hydroxypropylcellulose) (HPC)) 94 % of control; (dose: 200.0 mg/kg/injection, schedule: Q04DX004 (ip), vehicle: Klucel (hydroxypropylcellulose) (HPC)) 115 % of control; (dose: 400.0 mg/kg/injection, schedule: Q04DX004 (ip), vehicle: Klucel (hydroxypropylcellulose) (HPC)) 92 % of control.

On to `O=C1c2c(O)ccc(O)c2C(=O)c2c(NCCNCCO)ccc(NCCNCCO)c21`, for which the T/C reads like this: (dose: 0.25 mg/kg/injection, schedule: Q04DX005 (ip), vehicle: saline) 319 % of control; (dose: 0.5 mg/kg/injection, schedule: Q04DX004 (ip), vehicle: water) 161 % of control; (dose: 0.5 mg/kg/injection, schedule: Q04DX005 (ip), vehicle: saline) 319 % of control; (dose: 1.0 mg/kg/injection, schedule: Q04DX004 (ip), vehicle: water) 174 % of control; (dose: 1.0 mg/kg/injection, schedule: Q04DX005 (ip), vehicle: saline) 319 % of control; (dose: 2.0 mg/kg/injection, schedule: Q04DX004 (ip), vehicle: water) 224 % of control. Also, the T/C (dose: 2.0 mg/kg/injection, schedule: Q04DX005 (ip), vehicle: saline) was 298 % of control.

With `C=C(C)[C@H]1Cc2c(ccc3c2O[C@@H]2COc4cc(OC)c(OC)cc4[C@@H]2C3=O)O1`, the T/C runs as follows: (dose: 6.25 mg/kg/injection, schedule: Q04DX004 (ip), vehicle: saline with Tween-80) 98 % of control; (dose: 12.5 mg/kg/injection, schedule: Q04DX004 (ip), vehicle: saline with Tween-80) 95 % of control; under setting [1], 97 % of control.

As to `CN(C)CCC(=O)C(=Cc1ccc(O)cc1)C(=O)CCN(C)C`, the T/C is, setting by setting: (dose: 25.0 mg/kg/injection, schedule: Q04DX004 (ip), vehicle: saline) 103 % of control; (dose: 50.0 mg/kg/injection, schedule: Q04DX004 (ip), vehicle: saline) 100 % of control; (dose: 100.0 mg/kg/injection, schedule: Q04DX004 (ip), vehicle: saline) 104 % of control; (dose: 200.0 mg/kg/injection, schedule: Q04DX004 (ip), vehicle: saline) 100 % of control.

As for `CCN(CC)c1ccc2[nH]c3c(C(N)=O)cc(=O)c(=O)c=3oc2c1`, the T/C runs as follows: under setting [1], 105 % of control; under setting [2], 108 % of control; under setting [3], 106 % of control; under setting [4], 96 % of control.

Take `Cc1nc2cc[nH]n2c(=O)c1CCc1ccccc1`: the T/C by setting is: under setting [2], 107 % of control; under setting [3], 94 % of control; under setting [4], 96 % of control.

Consider `Cc1ccc2c(c1)n([O-])c1cc(Cl)ccc1[n+]2=O`, for which the T/C is, setting by setting: under setting [1], 104 % of control; under setting [2], 113 % of control; under setting [3], 109 % of control; (dose: 144.0 mg/kg/injection, schedule: Q04DX004 (ip), vehicle: saline with Tween-80) 120 % of control.

For `CNC(=S)C#N`, the T/C (dose: 12.5 mg/kg/injection, schedule: Q04DX004 (ip), vehicle: saline + Tween-80 + alcohol) was 90 % of control and the T/C (dose: 50.0 mg/kg/injection, schedule: Q04DX004 (ip), vehicle: saline + Tween-80 + alcohol) is 89 % of control.

(Values after PubChem BioAssay AID292 (DTP/NCI, 2004).)
